Test results reported in patent publication US11584765B2 (priority 2017, dated 2023).

Test system: C57BL/6 mice
Experiment: animal or person
Format: in vivo
Conditions: Mus musculus, sc, 0.5 h, s.c. administration, 30 min, 55° C. water, read-out: ED50 (mg/kg) at 30 min on C57BL/6 mice in Warm-water Tail-flick Test

| Compound | ED50 [mg/kg] |
| --- | --- |
| CCOCC1(CCc2ccc(OC)cc2)CCN(Cc2ccc(NC(C)=O)cc2)CC1.Cl [Compound 106, N-(4-((4-(ethoxymethyl)-4-(4-methoxy-phenethyl)piperidin-1-yl)methyl)phenyl)acetamide HCl] | > 10 |
| CC(=O)Nc1ccc(CN2CCC(CCc3ccccc3)(COC(F)F)CC2)cc1 [Compound 107, N-(4-((4-((difluoro-methoxy)methyl)-4-phenethylpiperidin-1-yl)methyl)phenyl)acetamide] | > 10 |
| CCOCC1(CCc2ccccc2)CCN(Cc2ccc3[nH]c(=O)[nH]c3c2)CC1 [Compound 108, 5-((4-(ethoxymethyl)-4-phenethylpiperidin-1-yl)methyl)-1H-benzo[d]imidazol-2(3H)-one] | > 10 |
| CCOCC1(CCc2ccccc2)CCN(Cc2ccc3c(c2)CC(=O)N3)CC1 [Compound 109, 5-((4-(ethoxymethyl)-4-phenethylpiperidin-1-yl)methyl)indolin-2-one] | > 10 |
| CCOCC1(CCc2ccccc2)CCN(Cc2ccc3[nH]ccc3c2)CC1 [Compound 110, 5-((4-(ethoxymethyl)-4-phenethylpiperidin-1-yl)methyl)-1H-indole] | > 10 |
| CCOCC1(CCc2ccccc2)CCN(Cc2ccc3[nH]c(=O)oc3c2)CC1 [Compound 111, 6-((4-(ethoxymethyl)-4-phenethylpiperidin-1-yl)methyl)benzo[d]oxazol-2(3H)-one] | > 10 |
| CCOCC1(CCc2ccccc2)CCN(Cc2ccc3[nH]cnc3c2)CC1 [Compound 112, 5-((4-(ethoxymethyl)-4-phenethylpiperidin-1-yl)methyl)-1H-benzo[d]imidazole] | > 10 |
| CC(=O)Nc1ccc(CN2CCC(CCc3ccccc3)(COC3CCCC3)CC2)cc1 [Compound 113, N-(4-((4-(cyclopentyloxy-methyl)-4-phenethylpiperidin-1-yl)methyl)phenyl)acetamide] | > 10 |
| CC(=O)Nc1ccc(CN2CCC(CCc3ccccc3)(COc3ccccc3)CC2)cc1 [Compound 114, N-(4-((4-phenethyl-4-(phenoxy-methyl)piperidin-1-yl)methyl)phenyl)acet-amide] | > 10 |
| CCOCC1(CCc2ccccc2)CCN(Cc2ccc(NC(=O)C(F)(F)F)cc2)CC1 [Compound 115, N-(4-((4-(ethoxymethyl)-4-phenethylpiperidin-1-yl)methyl)phenyl)-2,2,2-trifluoroacetamide] | > 10 |
| CCOCC1(CCc2ccccc2)CCN(Cc2ccc(NC(=O)N(C)C)cc2)CC1 [Compound 116, 3-(4-((4-(ethoxymethyl)-4-phenethylpiperidin-1-yl)methyl)phenyl)-1,1-dimethylurea] | > 10 |
| CCOCC1(CCc2ccccc2)CCN(Cc2ccc(NC(=O)NC)cc2)CC1 [Compound 117, 1-(4-((4-(ethoxymethyl)-4-phenethylpiperidin-1-yl)methyl)phenyl)-3-methylurea] | > 10 |
| CC(=O)Nc1ccc(CN2CCC(CCc3ccccc3)(C3OC3C)CC2)cc1 (stereo not shown) [Compound 118, N-(4-((4-(3-methyloxiran-2-yl)-4-phenethylpiperidin-1-yl)methyl)phenyl)acetamide] | > 10 |
| CCNc1ccc(CN2CCC(CCc3ccccc3)(CNC)CC2)cc1 [Compound 119, N-ethyl-4-((4-((methylamino)methyl)-4-phenethylpiperidin-1-yl)methyl)aniline] | > 10 |
| CC(=O)Nc1ccc(CN2CCC(CCc3ccccc3)(C3CCO3)C2)cc1 (stereo not shown) [Compound 120, N-(4-((3-(oxetan-2-yl)-3-phenethylpyrrolidin-1-yl)methyl)phenyl)acetamide] | < 10 |
| CCOCC1(CCc2ccccc2)CCN(CC2CCC(NC(C)=O)CC2)CC1.Cl (stereo not shown) [Compound 121, N-(4-((4-(ethoxymethyl)-4-phenethylpiperidin-1-yl)methyl)cyclo-hexyl)acetamide HCl] | > 10 |
| CCOCC1(OCc2ccccc2)CCN(Cc2ccc(NC(C)=O)cc2)CC1 [Compound 122, N-(4-((4-(benzyloxy)-4-(ethoxymethyl)piperidin-1-yl)methyl)phenyl)acetamide] | > 10 |
| CC(=O)Nc1ccc(CN2CCC(CCc3ccccc3)(COc3ccccn3)CC2)cc1 [Compound 123, N-(4-((4-phenethyl-4-((pyridin-2-yloxy)methyl)piperidin-1-yl)methyl)phenyl)acetamide] | > 10 |
| CC(=O)Nc1ccc(CN2CCC(CCc3ccccc3)(Oc3ccccn3)CC2)cc1 [Compound 124, N-(4-((4-phenethyl-4-(pyridin-2-yloxy)piperidin-1-yl)methyl)phenyl)acetamide] | > 10 |
| CCOCC1(CCc2ccccc2)CCN(c2ccc(NC(C)=O)cc2)CC1 [Compound 125, N-(4-(4-(ethoxymethyl)-4-phenethylpiperidin-1-yl)phenyl)acetamide] | > 10 |
| CCOCC1(CCc2ccccc2)CCN(CCc2ccc(NC(C)=O)cc2)CC1 [Compound 126, N-(4-(2-(4-(ethoxymethyl)-4-phenethylpiperidin-1-yl)ethyl)phenyl)acetamide] | > 10 |
| CCOCC1(CCc2ccccc2)CCN(c2ccc(N(C)C)cc2)CC1 [Compound 127, 4-(4-(ethoxymethyl)-4-phenethylpiperidin-1-yl)-N,N-dimethylaniline] | > 10 |

| Compound | ED50 [mg/kg] |
| --- | --- |
| CCOCC1(CCc2ccccc2)CCN(Cc2ccc(CCOC)cc2)CC1 [Compound 128, 4-(ethoxymethyl)-1-(4-(2-methoxyethyl)benzyl)-4-phenethylpiperidine] | > 10 |
| CCOCC1(CCc2ccccc2)CCN(Cc2ccc(COC)cc2)CC1 [Compound 129, 4-(ethoxymethyl)-1-(4-(methoxymethyl)benzyl)-4-phenethylpiperidine HC] | > 10 |
| CCOCC1(CCc2ccccc2)CCN(Cc2cc(C)c(NC(C)=O)c(C)c2)CC1 [Compound 130] | > 10 |
| CCOCC1(CCc2ccccc2)CCN(Cc2ccc(CC(C)=O)cc2)CC1 [Compound 131, 1-(4-((4-(ethoxymethyl)-4-phenethylpiperidin-1-yl)methyl)phenyl)propan-2-one] | > 10 |
| CCOCC1(COCc2ccccc2)CCN(Cc2ccc(NC(C)=O)cc2)CC1.Cl [Compound 132, N-(4-((4-(benzyloxymethyl)-4-(ethoxymethyl)piperidin-1-yl)methyl)phenyl)acetamide HCl] | > 10 |
| CCOC(=O)C1(CCc2ccccc2)CCCN(Cc2ccc(NC(C)=O)cc2)CC1 (stereo not shown) [Compound 133, ethyl 1-(4-acetamidobenzyl)-4-phenethylazepane-4-carboxylate] | > 10 |
| CCOCC1(CCc2ccccc2)CCN(Cc2ccc(-c3nccs3)cc2)CC1 [Compound 134, 2-(4-((4-(ethoxymethyl)-4-phenethylpiperidin-1-yl)methyl)phenyl)thiazole] | > 10 |
| CCOCC1(CCc2ccccc2)CCN(Cc2ccc(-c3nc(C)no3)cc2)CC1.Cl [Compound 135, 5-(4-((4-(ethoxymethyl)-4-phenethylpiperidin-1-yl)methyl)pheny)-3-methyl-1,2,4-oxadiazole HCl] | > 10 |
| CCOCC1(CCc2ccccc2)CCN(Cc2ccc(-c3ncon3)cc2)CC1.Cl [Compound 136, 3-(4-((4-(ethoxymethyl)-4-phenethylpiperidin-1-yl)methyl)phenyl)-1,2,4-oxadiazole HCl] | > 10 |
| CCOCC1(CCc2ccccc2)CCN(Cc2ccc(-c3nnco3)cc2)CC1 [Compound 137, 2-(4-((4-(ethoxymethyl)-4-phenethylpiperidin-1-yl)methyl)phenyl)-1,3,4-oxadiazole] | > 10 |
| CCOCC1(CCc2ccccc2)CCN(Cc2ccc(-c3nncs3)cc2)CC1 [Compound 138, 2-(4-((4-(ethoxymethyl)-4-phenethylpiperidin-1-yl)methyl)phenyl)-1,3,4-thiadiazole] | > 10 |
| CCOCC1(CCc2ccccc2)CCN(Cc2ccc(-c3cncs3)cc2)CC1 [Compound 139, 5-(4-((4-(ethoxymethyl)-4-phenethylpiperidin-1-yl)methyl)phenyl)thiazole] | > 10 |
| CCOCC1(CCc2ccccc2)CCN(Cc2ccc(-c3ncc[nH]3)cc2)CC1 [Compound 140, 1-(4-(1H-imidazol-2-yl)benzyl)-4-(ethoxymethyl)-4-phenethylpiperidine] | > 10 |
| CCOCC1(CCc2ccccc2)CCN(Cc2ccc(-c3cnc[nH]3)cc2)CC1 [Compound 141, 1-(4-(1H-imidazol-5-yl)benzyl)-4-(ethoxymethyl)-4-phenethylpiperidine] | > 10 |
| CCOCC1(CCc2ccccc2)CCN(Cc2ccc(CC(=O)O)cc2)CC1 [Compound 142, 2-(4-((4-(ethoxymethyl)-4-phenethylpiperidin-1-yl)methyl)phenyl)acetic acid] | > 10 |
| CCOCC1(CCc2ccccc2)CCN(Cc2ccc(CC(=O)N(C)OC)cc2)CC1 [Compound 143, 2-(4-((4-(ethoxymethyl)-4-phenethylpiperidin-1-yl)methyl)phenyl)-N-methoxy-N-methylacetamide] | > 10 |
| CCOCC1(CCc2ccccc2)CCN(Cc2ccc(C(=O)OC)cc2)CC1 [Compound 144, methyl 4-((4-(ethoxymethyl)-4-phenethylpiperidin-1-yl)methyl)benzoate] | > 10 |
| CCOCC1(CCc2ccccc2)CCN(Cc2ccc(C(=O)O)cc2)CC1 [Compound 145, 4-((4-(ethoxymethyl)-4-phenethylpiperidin-1-yl)methyl)benzoic acid] | > 10 |
| CCOCC1(CCc2ccccc2)CCN(Cc2ccc(C(C)=O)cc2)CC1 [Compound 146, 1-(4-((4-(ethoxymethyl)-4-phenethylpiperidin-1-yl)methyl)phenyl)ethanone] | > 10 |
| CCOCC1(CCc2ccsc2)CCN(Cc2ccc(NC(C)=O)cc2)CC1 [Compound 147, N-(4-((4-(ethoxymethyl)-4-(2-(thiophen-3-yl)ethyl)piperidin-1-yl)methyl)phenyl)acetamide] | < 10 |
| CCOCC1(CCc2ccc3ccccc3c2)CCN(Cc2ccc(NC(C)=O)cc2)CC1 [Compound 148, N-(4-((4-(ethoxymethyl)-4-(2-(naphthalen-2-yl)ethyl)piperidin-1-yl)methyl)phenyl)acetamide] | > 10 |
